# Results from patent US5266707A, “3,5-dihydroxyheptanoic acid derivatives” (Fujirebio Inc., priority 1991, dated 1993).
# pIC50: −log10 of the molar value. Like-named read-outs stand apart in the source and are kept apart here.
# Columns and labels:
# [1] = test system: automatic TBARS reproduction of the rat brain homogenate; assay: Measurement of Anti-oxidation Function (inhibition of automatic TBARS reproduction of rat brain homogenate); format: biochemical; conditions: inhibition of TBARS in rat brain homogenate
# HMG-CoA Reductase = molecular target: T1, HMG-CoA Reductase (Rattus norvegicus, UniProt P51639); assay: Measurement of Inhibitory Activity on HMG-CoA Reductase (activity ratio of biosynthesis of cholesterol); format: biochemical
# T1 construct: from tissue
# T1 sequence (P51639 1-887): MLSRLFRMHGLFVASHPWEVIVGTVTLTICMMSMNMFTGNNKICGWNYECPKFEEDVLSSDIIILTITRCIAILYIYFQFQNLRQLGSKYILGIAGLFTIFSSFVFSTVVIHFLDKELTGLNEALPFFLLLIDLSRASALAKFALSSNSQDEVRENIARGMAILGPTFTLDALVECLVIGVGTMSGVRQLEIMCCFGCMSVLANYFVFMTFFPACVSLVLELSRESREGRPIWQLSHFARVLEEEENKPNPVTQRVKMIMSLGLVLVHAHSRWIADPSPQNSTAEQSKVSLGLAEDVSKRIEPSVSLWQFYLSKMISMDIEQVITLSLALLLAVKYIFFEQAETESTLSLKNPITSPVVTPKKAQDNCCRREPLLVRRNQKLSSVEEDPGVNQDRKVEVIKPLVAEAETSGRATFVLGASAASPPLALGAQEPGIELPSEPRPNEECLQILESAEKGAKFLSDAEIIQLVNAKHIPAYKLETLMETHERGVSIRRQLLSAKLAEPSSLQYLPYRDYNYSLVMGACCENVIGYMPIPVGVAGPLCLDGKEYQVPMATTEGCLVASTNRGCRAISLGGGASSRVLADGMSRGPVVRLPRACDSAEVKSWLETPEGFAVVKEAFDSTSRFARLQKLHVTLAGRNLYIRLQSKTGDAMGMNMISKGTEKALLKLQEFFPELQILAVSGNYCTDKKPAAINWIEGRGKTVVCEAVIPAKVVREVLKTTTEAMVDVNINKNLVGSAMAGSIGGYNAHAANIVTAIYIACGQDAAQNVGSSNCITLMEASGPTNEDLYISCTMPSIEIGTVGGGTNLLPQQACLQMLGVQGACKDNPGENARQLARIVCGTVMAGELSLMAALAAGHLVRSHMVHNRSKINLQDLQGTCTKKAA
# [2] = test system: total serum cholesterol in model rats with Triton-induced hyperlipemia; assay: Measurement of Reduction in Cholesterol Value (total serum cholesterol, Triton-induced hyperlipemia model rats); format: in vivo, rat; conditions: value of Compactin (ML-236B) as reference (100)
# [3] = Relative value when the value of Compactin is 100
"Activity ratio of Biosynthesis of Cholesterol, Reactive Inhibitory Potency (HMG-CoA Reductase; [3])",SMILES,pIC50 [1],Reduction of Cholesterol Value [2],"Activity ratio of Biosynthesis of Cholesterol, Reactive Inhibitory Potency (HMG-CoA Reductase)"
–,"Cc1c(N)c(C)c2c(c1CC[C@H]1C[C@H](O)CC(=O)O1)OC(C)(C)C2 (racemic) [Compound No. 10, trans-(±)-6-[5-amino-2,3-dihydro-2,2,4,6-tetramethylbenzo[b]furan-7-yl]ethyl-4-hydroxytetrahydropyran-2-one]",5.56,–,–
250,"Cc1c(CC[C@H]2C[C@H](O)CC(=O)O2)c2c(c(C)c1N1Cc3ccccc3C1)CC(C)(C)O2 (racemic) [Compound No. 13, trans-(±)-6-[2,3-dihydro-5-(isoindolin-2-yl)-2,2,4,6-tetramethylbenzo[b]furan-7-yl]ethyl-4-hydroxytetrahydropyran-2-one]",5.84,180,–
–,"Cc1c(CC[C@H]2C[C@H](O)CC(=O)O2)c2c(c(C)c1N1CCCC1)CC(C)(C)O2 (racemic) [Compound No. 17, trans-(±)-6-[2,3-dihydro-2,2,4,6-tetramethyl-5-(pyrrolidin-1-yl)benzo[b]furan-7-yl]ethyl-4-hydroxytetrahydropyran-2-one]",5.83,–,–
–,"Cc1c(CC[C@H]2C[C@H](O)CC(=O)O2)c2c(c(C)c1N1CCc3ccccc3C1)CC(C)(C)O2 (racemic) [Compound No. 24, trans-(±)-6-[2,3-dihydro-5-(1,2,3,4-tetrahydroisoquinolin-2-yl)-2,2,4,6-tetramethylbenzo[b]furan-7-yl]ethyl-4-hydroxytetrahydropyran-2-one]",5.79,–,–
170,"Cc1c2c(c(CC[C@H]3C[C@H](O)CC(=O)O3)c(C(C)C)c1NCc1ccccc1)OC(C)(C)C2 (racemic) [Compound No. 43, trans-(±)-6-[5-benzylamino-2,3-dihydro-2,2,4-trimethyl-6-(propan-2-yl)benzo[b]furan-7-yl]ethyl-4-hydroxytetrahydropyran-2-one]",–,–,–
1550,"Cc1c(CCC(O)CC(O)CC(=O)O)c2c(c(C)c1-n1cc3ccccc3c1)CC(C)(C)O2 (racemic) [Compound No. 94, sodium 7-[2,3-dihydro-5-isoindolyl-2,2,4,6-tetramethylbenzo[b]furan-7-yl]-3,5-dihydroxyheptanoate]",–,–,–
250,"Cc1c(CC[C@@H]2C[C@@H](O)CC(=O)O2)c2c(c(C)c1-n1cc3ccccc3c1)CC(C)(C)O2 (relative stereo) [Compound No. 14, trans-(±)-6-[2,3-dihydro-5-isoindolyl-2,2,4,6-tetramethylbenzo[b]furan-7-yl]ethyl-4-hydroxytetrahydropyran-2-one]",–,–,–
–,"CC[C@H](C)C(=O)O[C@H]1CCC=C2C=C[C@H](C)[C@H](CC[C@@H]3C[C@@H](O)CC(=O)O3)[C@H]21 [Compactin, reference compound]",–,100,–
–,"Cc1c(CCC(O)CC(O)CC(=O)[O-])c2c(c(C)c1N1Cc3ccccc3C1)CC(C)(C)O2.[Na+] (stereo not shown) [Compound No. 15, sodium 7-[2,3-dihydro-5-(isoindolin-2-yl)-2,2,4,6-tetramethylbenzo[b]furan-7-yl]-3,5-dihydroxyheptanoate]",5.78,320,830
–,"CC(C)c1c(N2Cc3ccccc3C2)cc2c(c1CCC(O)CC(O)CC(=O)[O-])OC(C)(C)C2.[Na+] (stereo not shown) [Compound No. 76, sodium 7-[2,3-dihydro-5-(isoindolin-2-yl)-2,2-dimethyl-6-(propan-2-yl)benzo[b]furan-7-yl]-3,5-dihydroxyheptanoate]",5.19,–,2730
–,"CC1(C)Cc2cc(N3Cc4ccccc4C3)c(C(C)(C)C)c(CCC(O)CC(O)CC(=O)O)c2O1 (stereo not shown) [Compound No. 93, sodium 7-[6-(t-butyl)-2,3-dihydro-5-(isoindolin-2-yl)-2,2-dimethylbenzo[b]furan-7-yl]-3,5-dihydroxyheptanoate]",5.70,–,–

SMILES,"Activity ratio of Biosynthesis of Cholesterol, Reactive Inhibitory Potency (HMG-CoA Reductase; [3])",pIC50 [1],Reduction of Cholesterol Value [2],"Activity ratio of Biosynthesis of Cholesterol, Reactive Inhibitory Potency (HMG-CoA Reductase)"
"Cc1c(CCC(O)CC(O)CC(=O)O)c2c(c(C)c1N1Cc3ccccc3C1)CC(C)(C)O2 (stereo not shown) [Compound No. 12, 7-[2,3-dihydro-5-(isoindolin-2-yl)-2,2,4,6-tetramethylbenzo[b]furan-7-yl]3,5-dihydroxyheptoic acid]",1500,5.80,330,–
